A short description of the data set: Ratio of lactone ring-closed TPT over time in 50% human plasma at 37° C. (HPLC). Type of data set: in vitro ADME. The settings on record: 50% human plasma diluted with PBS. As to the method:
Fifty μL of TPT-containing PLA particle formulation or 50 μL of aqueous TPT solution (0.3 mg/mL) containing 50 mg/mL of PEG-4000 and 50 mg/mL of mannitol was freeze-dried. This freeze-dried product (control) and the above-mentioned nanoparticles were each dissolved in 1 mL of 50% human plasma (diluted with PBS), and were incubated at 37° C. For the purpose of investigating the ratio of ring-opening of lactone ring of TPT with lapse of time, 100 μL was taken out from the incubated sample after 0 hour, 2 hours and 4 hours, and was added to 900 μL of methanol. Plasma protein was denatured while the equilibrium of TPT structure was maintained, and, then, the samples were centrifuged at 10000 rpm for 10 minutes so that protein components were precipitated, and, then, the concentration of lactone ring-opened TPT and that of lactone ring-closed TPT in supernatant were measured with HPLC. An aqueous solution of TPT (pH 3; phosphate*hydro-chloride buffer) was used for control.
(§1) Fifty μL of TPT-containing nanoparticle formulation or a 50 μL of aqueous TPT solution (0.3 mg/mL) containing 50 mg/mL of PEG-4000 and 50 mg/mL of mannitol was freeze-dried, and was dissolved in 1 mL of 50% human plasma (diluted with PBS), and were incubated at 37° C. For the purpose of investigating the ratio of ring-opening and ring-closing of lactone ring of TPT with lapse of time, 100 μL of incubated sample was taken out after 0 hour, 2 hours and 4 hours, and was added to 900 μL of methanol. Plasma protein was denatured while the equilibrium of TPT structure was maintained, and, then, the sample was centrifuged at 10000 rpm for 10 minutes so that protein components were precipitated, and, then, the concentration of lactone ring-opened TPT and that of lactone ring-closed TPT in supernatant were measured with HPLC. An aqueous solution of TPT (pH 3; phosphate*hydrochloride buffer) was used for control.
as §1, with “TPT-containing micellar” for “TPT-containing”, “or” for “or a”, “ring-closing” for “ring-closing of lactone ring”, “HPLC.” for “HPLC. An aqueous solution of TPT (pH 3; phosphate*hydrochloride buffer) was used for control.”
as §1, with “nanocapsule particle” for “nanoparticle”, “its freeze-dried product” for “a 50 μL of aqueous TPT solution (0.3 mg/mL) containing 50 mg/mL of PEG-4000 and 50 mg/mL of mannitol was freeze-dried, and”, “ring-closing” for “ring-closing of lactone ring”, “HPLC.” for “HPLC. An aqueous solution of TPT (pH 3; phosphate*hydrochloride buffer) was used for control.”

Data on one compound can be found in patent US20060269613A1, “Composition containing nanoparticles containing water-soluble basic drug encpsulated therein” (priority 2003, published 2006).

`CC[C@@]1(O)C(=O)OCc2c1cc1n(c2=O)Cc2cc3c(CN(C)C)c(O)ccc3nc2-1` [Control]: the “ratio of ring-closed TPT in 50% human plasma, 0 Hour” value (“ratio … in 50% human plasma, 0 Hour” for short) (Table 1 (Example 1)) worked out at 97.5%; the “ratio … in 50% human plasma, 0 Hour” value (Table 2 (Example 2)) is 98.8%; the “ratio … in 50% human plasma, 0 Hour” value (Table 3 (Example 3)) is listed as 98.9%; the “ratio … in 50% human plasma, 0 Hour” value (Table 4 (Example 5)) worked out at 98.2%. Further, the “ratio of ring-closed TPT in 50% human plasma, 2 Hours” value is, setting by setting: (Table 1 (Example 1)) 24.6%; (Table 2 (Example 2)) 20.8%; (Table 3 (Example 3)) 18.6%; (Table 4 (Example 5)) 14.4%. Besides, the “ratio of ring-closed TPT in 50% human plasma, 4 Hours” value reads like this: (Table 1 (Example 1)) 19.4%; (Table 2 (Example 2)) 13.4%; (Table 3 (Example 3)) 14.6%; (Table 4 (Example 5)) 11.9%.
